pEC50: −log10 of the molar value. Where two headings read alike, the source gives them in different places.
How the values were obtained:
[1] = test system: N87 (human gastric (stomach) cancer cell line); test: 72 hr ATP luminescence proliferation inhibition, N87; type: cell-based; conditions: read-out: Proliferation Inhibition of Cancer Cells EC50, N87
Experimental: (§1) Proliferation inhibition was measured using a 72 hr ATP luminescence assay (Cheng et al., U.S. Pat. No. 8,394,922 B2 (2013)).
(§2) Proliferation inhibition was measured against: (a) H226 (human mesothelioma (lung) cancer cell line); (b) N87 (human gastric (stomach) cancer cell line); (c) OVCAR3 (human ovarian cancer cell line); (d) HCT116 (human colon cancer cell line); and (e) HCT116/VM46 (multidrug and paclitaxel resistant subline of HCT116).

[2] = test system: H226 (human mesothelioma (lung) cancer cell line); test: 72 hr ATP luminescence proliferation inhibition, H226; type: cell-based
Experimental: as §1, §2

[3] = test system: HCT116/VM46 (multidrug and paclitaxel resistant subline of HCT116); test: 72 hr ATP luminescence proliferation inhibition, HCT116/VM46; type: cell-based, human; conditions: read-out: Proliferation Inhibition of Cancer Cells EC50, HCT116/VM46
Experimental: as §1, §2

[4] = test system: HCT116 (human colon cancer cell line); test: 72 hr ATP luminescence proliferation inhibition, HCT116; type: cell-based
Experimental: as §1, §2

[5] = test system: OVCAR3 (human ovarian cancer cell line); test: 72 hr ATP luminescence proliferation inhibition, OVCAR3; type: cell-based
Experimental: as §1, §2

[6] = Homo sapiens, NCI-H226, read-out: Proliferation Inhibition of Cancer Cells EC50, H226
[7] = Homo sapiens, HCT-116/VM46, HCT116/VM46 cell line
[8] = Homo sapiens, HCT-116, read-out: Proliferation Inhibition of Cancer Cells EC50, HCT116
[9] = Homo sapiens, OVCAR-3, read-out: Proliferation Inhibition of Cancer Cells EC50, OVCAR3
[10] = read-out: Proliferation Inhibition of Cancer Cells EC50, HCT116
[11] = read-out: Proliferation Inhibition of Cancer Cells EC50, OVCAR3
[12] = read-out: Proliferation Inhibition of Cancer Cells EC50, H226

Structure (SMILES): CN(C)CCOc1ccc2[nH]c(C(=O)N3C[C@@H](CCl)c4c3cc(O)c3[nH]c(C(=O)N5CCOCC5)cc43)cc2c1 [Ia-16]
- pEC50 ([1]; Homo sapiens): 9.30
- pEC50 [2, 6]: 9.40

Structure (SMILES): COc1ccc2[nH]c(C(=O)N3C[C@@H](CCl)c4c3cc(O)c3[nH]c(C(=O)N5CCOCC5)cc43)cc2c1 [Ia-11]
- pEC50 [3, 7]: 9.04
- pEC50 [4, 8]: 9.24
- pEC50 [5, 9]: 9.28
- pEC50 ([1]; Homo sapiens): 8.92
- pEC50 [2, 6]: 9.00

Structure (SMILES): O=C(c1cc2c3c(cc(O)c2[nH]1)N(C(=O)c1cc2cc(OCCC4CC4)ccc2[nH]1)C[C@H]3CCl)N1CCOCC1 [Ia-07]
- pEC50 [3, 7]: 9.17
- pEC50 [4, 8]: 9.17
- pEC50 [5, 9]: 9.39
- pEC50 ([1]; Homo sapiens): 9.09
- pEC50 [2, 6]: 9.14

Structure (SMILES): CNCCN(CCOCCO)C(=O)c1cc2c3c(cc(O)c2[nH]1)N(C(=O)c1cc2cc(OC)ccc2[nH]1)C[C@H]3CCl [Ia-24]
- pEC50 ([3]; HCT116/VM46 cell line): 6.60
- pEC50 [4, 10]: 6.60
- pEC50 [5, 11]: 6.60
- pEC50 [2, 12]: 6.60

Structure (SMILES): COCCOc1ccc2[nH]c(C(=O)N3C[C@@H](CCl)c4c3cc(O)c3[nH]c(C(=O)Nc5ccc(N)cc5)cc43)cc2c1 [Ia-29]
- pEC50 [1]: 9.59
- pEC50 [2, 12]: 9.20

Structure (SMILES): Nc1ccc2[nH]c(C(=O)N3C[C@@H](CCl)c4c3cc(O)c3[nH]c(C(=O)N5CCOCC5)cc43)cc2c1 [Ia-19]
- pEC50 [3, 7]: 8.46
- pEC50 [4, 8]: 8.49
- pEC50 [5, 9]: 8.96
- pEC50 ([1]; Homo sapiens): 8.51
- pEC50 [2, 6]: 8.38

Structure (SMILES): CC[C@@H](CO)NC(=O)c1cc2c3c(cc(O)c2[nH]1)N(C(=O)c1cc2cc(OC)ccc2[nH]1)C[C@H]3CCl [Ia-23]
- pEC50 ([3]; HCT116/VM46 cell line): 8.72
- pEC50 [4, 10]: 9.05
- pEC50 [5, 11]: 8.96
- pEC50 [1]: 8.59
- pEC50 [2, 12]: 8.12

Structure (SMILES): COCOc1ccc(C(=O)Nc2ccc3nc(C(=O)N4C[C@@H](CCl)c5c4cc(O)c4[nH]c(C(=O)N6CCOCC6)cc54)cn3c2)cc1 [Ib-02]
- pEC50 ([3]; HCT116/VM46 cell line): 8.72
- pEC50 [4, 10]: 9.19
- pEC50 [5, 11]: 9.28
- pEC50 [1]: 9.02
- pEC50 [2, 12]: 9.00

Structure (SMILES): O=C(c1cc2c3c(cc(O)c2[nH]1)N(C(=O)c1cc2cc(-c4ccccc4)ccc2[nH]1)C[C@H]3CCl)N1CCOCC1 [Ia-12]
- pEC50 [3, 7]: 9.54
- pEC50 [4, 8]: 9.40
- pEC50 [5, 9]: 9.27
- pEC50 ([1]; Homo sapiens): 8.89
- pEC50 [2, 6]: 9.28

Structure (SMILES): O=C(c1cc2c3c(cc(O)c2[nH]1)N(C(=O)c1cc2cc(OCC4CC4)ccc2[nH]1)C[C@H]3CCl)N1CCOCC1 [Ia-04]
- pEC50 [3, 7]: 9.92
- pEC50 [4, 8]: 9.92
- pEC50 [5, 9]: 9.96
- pEC50 ([1]; Homo sapiens): 9.82
- pEC50 [2, 6]: 9.96

Structure (SMILES): COc1ccc2[nH]c(C(=O)N3C[C@@H](CCl)c4c3cc(O)c3[nH]c(C(=O)N5CCN(C)CC5)cc43)cc2c1 [Ia-20]
- pEC50 ([3]; HCT116/VM46 cell line): 8.59
- pEC50 [4, 10]: 8.72
- pEC50 [5, 11]: 8.82
- pEC50 [1]: 8.46
- pEC50 [2, 12]: 8.19

Structure (SMILES): Nc1ccc2[nH]c(C(=O)N3C[C@@H](CCl)c4c3cc(O)c3[nH]c(C(=O)N5CCNCC5)cc43)cc2c1 [Ia-25]
- pEC50 ([3]; HCT116/VM46 cell line): 7.62
- pEC50 [4, 10]: 7.89
- pEC50 [5, 11]: 7.66
- pEC50 [1]: 7.42
- pEC50 [2, 12]: 7.64

Structure (SMILES): COc1ccc2[nH]c(C(=O)N3C[C@@H](CCl)c4c3cc(O)c3[nH]c(C(=O)NCCOCCO)cc43)cc2c1 [Ia-22]
- pEC50 ([3]; HCT116/VM46 cell line): 8.92
- pEC50 [4, 10]: 8.92
- pEC50 [5, 11]: 8.96
- pEC50 [1]: 8.72
- pEC50 [2, 12]: 8.29

Structure (SMILES): O=C(Nc1ccc2[nH]c(C(=O)N3C[C@@H](CCl)c4c3cc(O)c3[nH]c(C(=O)N5CCOCC5)cc43)cc2c1)c1ccc(O)cc1 [Id-01]
- pEC50 [4, 8]: 9.03
- pEC50 [5, 9]: 8.96
- pEC50 ([1]; Homo sapiens): 8.64

Structure (SMILES): O=C(c1cc2c3c(cc(O)c2[nH]1)N(C(=O)c1cc2cc(OC4CCC4)ccc2[nH]1)C[C@H]3CCl)N1CCOCC1 [Ia-06]
- pEC50 ([3]; HCT116/VM46 cell line): 9.44
- pEC50 [4, 10]: 9.44
- pEC50 [5, 11]: 9.49
- pEC50 [1]: 9.25
- pEC50 [2, 12]: 9.33

Structure (SMILES): CCCOc1ccc2[nH]c(C(=O)N3C[C@@H](CCl)c4c3cc(O)c3[nH]c(C(=O)N5CCOCC5)cc43)cc2c1 [Ia-03]
- pEC50 [3, 7]: 10.47
- pEC50 [4, 8]: 10.47
- pEC50 [5, 9]: 10.59
- pEC50 ([1]; Homo sapiens): 10.32
- pEC50 [2, 6]: 10.42

Structure (SMILES): O=C(c1cc2c3c(cc(O)c2[nH]1)N(C(=O)c1cc2cc(OCC4CCCCC4)ccc2[nH]1)C[C@H]3CCl)N1CCOCC1 [Ia-10]
- pEC50 ([1]; Homo sapiens): 9.82
- pEC50 [2, 6]: 9.60

Structure (SMILES): CC(C)Oc1ccc2[nH]c(C(=O)N3C[C@@H](CCl)c4c3cc(O)c3[nH]c(C(=O)N5CCOCC5)cc43)cc2c1 [Ia-13]
- pEC50 [3, 7]: 9.62
- pEC50 [4, 8]: 9.74
- pEC50 [5, 9]: 9.92
- pEC50 ([1]; Homo sapiens): 9.32
- pEC50 [2, 6]: 9.49
